21 compounds from publication PMC11668715 (AMB Express, 2024) can be followed below.

A value given as a limit tells only on which side of the number the result lay.

Test [1] has as its system MRSA ATCC 43,300. Description: Checkerboard dilution assay. The format is cell-based, S. aureus. Set-up: MICalone / MICcombined: unit not given beside the values. The settings on record: for MICalone: drug alone, checkerboard; for MICalone / MICcombined: MRSA ATCC 43,300; for Fold change: MIC combined vs alone.
The subject of test [2] is MRSA ATCC 43,300. Kind of test: Time-killing assay of the synergistical combinations. The settings on record: 1/4×MIC of PVB and 1/4×MIC of the antibiotic. It counts as cell-based, S. aureus.
The test system of test [3] is MRSA and S. epidermidis persister cells. Kind of test: Persister cells killing assay. It counts as cell-based, S. aureus and S. epidermidis. The settings on record: 64 µg/mL.
Where [4] appears, read: group 19: PVB combined with KANA.
Setting [5] is: group 20: PVB combined with TOB.
Setting [6] is: group 18: PVB combined with GEN.
Setting [7] is: group 12: PVB combined with AMP.
Where [8] appears, read: group 17: PVB combined with AMK.
[9] abbreviates: group 11: PVB combined with CAZ.
The mark [10] stands for this setting: group 15: PVB combined with OXA.
The mark [11] stands for this setting: group 16: PVB combined with CRO.
Setting [12] is: group 21: PVB combined with SPC.
[13] abbreviates: group 13: PVB combined with CEZ.
Where [14] appears, read: group 14: PVB combined with CEF.

On to `CC[C@H]1OC(=O)[C@H](C)[C@@H](O[C@H]2C[C@@](C)(OC)[C@@H](O)[C@H](C)O2)[C@H](C)[C@@H](O[C@@H]2O[C@H](C)C[C@H](N(C)C)[C@H]2O)[C@](C)(O)C[C@@H](C)CN(C)[C@H](C)[C@@H](O)[C@]1(C)O` [AZI, azithromycin], for which the MICalone with MRSA ATCC 43,300 [1] is > 256. Moreover, the FICI in the test with MRSA ATCC 43,300 [1] (group 4: PVB + AZI) came to 2. Moreover, in the test with MRSA ATCC 43,300 [1] (group 4: PVB combined with AZI), the Fold change is listed as 1 and the MICcombined is given as > 256.
With `NC[C@H]1O[C@H](O[C@H]2[C@H](O)[C@@H](O[C@H]3O[C@H](CO)[C@@H](O)[C@H](N)[C@H]3O)[C@H](N)C[C@@H]2N)[C@H](O)[C@@H](O)[C@@H]1O` [KANA, kanamycin], the MICalone with MRSA ATCC 43,300 [1] was found to be 256. Moreover, in the test on MRSA ATCC 43,300 [1] (group 19: PVB + KANA), the FICI was found to be 4.5 and the Outcome entry is given as “antagonism (an antagonism effect was defined as FICI > 4)”. In the test on MRSA ATCC 43,300 [1] (setting [4]), the Fold change was 4 and the MICcombined is on record as 1024.
Consider `NC[C@H]1O[C@H](O[C@H]2[C@H](O)[C@@H](O[C@H]3O[C@H](CO)[C@@H](O)[C@H](N)[C@H]3O)[C@H](N)C[C@@H]2N)[C@H](N)C[C@@H]1O` [TOB, tobramycin], for which the MICalone in the test with MRSA ATCC 43,300 [1] is given as 64. For the same compound, the FICI with MRSA ATCC 43,300 [1] (group 20: PVB + TOB) was found to be 5. Moreover, in the test with MRSA ATCC 43,300 [1] (setting [5]), the Fold change is 4 and the MICcombined was 256.
For the compound `C[C@H]1COc2c(N3CCN(C)CC3)c(F)cc3c(=O)c(C(=O)O)cn1c23` [LEV, levofloxacin], the MICalone in the test with MRSA ATCC 43,300 [1] is reported as 0.125. In addition, the FICI in the test with MRSA ATCC 43,300 [1] (group 5: PVB + LEV) was determined as 2. In addition, in the test with MRSA ATCC 43,300 [1] (group 5: PVB combined with LEV), the Fold change stood at 1 and the MICcombined is reported as 0.125.
For gentamycin, the MICalone with MRSA ATCC 43,300 [1] is reported as 16. Also, in the test with MRSA ATCC 43,300 [1] (group 18: PVB + GEN), the FICI was 2 and the Outcome entry is reported as “indifference (an indifference effect was defined as 1 < FICI ≤ 4)”. In the test with MRSA ATCC 43,300 [1] (setting [6]), the Fold change was found to be 1 and the MICcombined stood at 16.
Turning to `CC1(C)S[C@@H]2[C@H](NC(=O)[C@H](N)c3ccccc3)C(=O)N2[C@H]1C(=O)O` [AMP, ampicillin], the MICalone with MRSA ATCC 43,300 [1] came out at 16. The FICI with MRSA ATCC 43,300 [1] (group 12: PVB + AMP) was 0.5. In addition, in the test on MRSA ATCC 43,300 [1] (setting [7]), the Fold change stood at 0.25 and the MICcombined amounted to 4. For the same compound, the “bactericidal activity of combination with PVB (time-killing)” value (“bactericidal activity of combination” below) in the test on MRSA ATCC 43,300 [2] was “synergistical bactericidal activity”.
With `C[C@H]1c2cccc(O)c2C(=O)C2=C(O)[C@]3(O)C(=O)C(C(N)=O)=C(O)[C@@H](N(C)C)[C@@H]3[C@@H](O)[C@@H]21` [DOX, doxycycline], the MICalone in the test with MRSA ATCC 43,300 [1] was 0.25. Further, the FICI in the test on MRSA ATCC 43,300 [1] (group 2: PVB + DOX) turned out to be 2. In addition, in the test with MRSA ATCC 43,300 [1] (group 2: PVB combined with DOX), the Fold change is reported as 1 and the MICcombined worked out at 0.25.
In the case of `CCCCCCCCCC(=O)N[C@@H](Cc1c[nH]c2ccccc12)C(=O)N[C@H](CC(N)=O)C(=O)N[C@@H](CC(=O)O)C(=O)N[C@@H]1C(=O)NCC(=O)N[C@@H](CCCN)C(=O)N[C@@H](CC(=O)O)C(=O)N[C@H](C)C(=O)N[C@@H](CC(=O)O)C(=O)NCC(=O)N[C@H](CO)C(=O)N[C@@H]([C@H](C)CC(=O)O)C(=O)N[C@@H](CC(=O)c2ccccc2N)C(=O)O[C@@H]1C` [DAP, daptomycin], the MICalone with MRSA ATCC 43,300 [1] was 0.25. The FICI in the test on MRSA ATCC 43,300 [1] (group 6: PVB + DAP) came out at 1. Moreover, in the test with MRSA ATCC 43,300 [1] (group 6: PVB combined with DAP), the Fold change is reported as 0.5 and the MICcombined is recorded as 0.125.
Take `NCC[C@H](O)C(=O)N[C@@H]1C[C@H](N)[C@@H](O[C@H]2O[C@H](CN)[C@@H](O)[C@H](O)[C@H]2O)[C@H](O)[C@H]1O[C@H]1O[C@H](CO)[C@@H](O)[C@H](N)[C@H]1O` [AMK, amikacin]: the MICalone with MRSA ATCC 43,300 [1] was determined as 64. For the same compound, in the test with MRSA ATCC 43,300 [1] (group 17: PVB + AMK), the FICI is listed as > 2 and the Outcome result is “indifference/antagonism”. Further, in the test with MRSA ATCC 43,300 [1] (setting [8]), the Fold change is reported as > 1 and the MICcombined was > 64.
On to `C[C@@H]1O[C@@H]1P(=O)(O)O` [FOS, fosfomycin], for which the MICalone in the test on MRSA ATCC 43,300 [1] amounted to 32. Moreover, the FICI in the test on MRSA ATCC 43,300 [1] (group 7: PVB + FOS) is 2. Further, in the test on MRSA ATCC 43,300 [1] (group 7: PVB combined with FOS), the Fold change amounted to 1 and the MICcombined came out at 32.
As to `CN[C@H](CC(C)C)C(=O)N[C@H]1C(=O)N[C@@H](CC(N)=O)C(=O)N[C@H]2C(=O)N[C@H]3C(=O)N[C@H](C(=O)N[C@H](C(=O)O)c4cc(O)cc(O)c4-c4cc3ccc4O)[C@H](O)c3ccc(c(Cl)c3)Oc3cc2cc(c3O[C@@H]2O[C@H](CO)[C@@H](O)[C@H](O)[C@H]2O[C@H]2C[C@](C)(N)[C@H](O)[C@H](C)O2)Oc2ccc(cc2Cl)[C@H]1O` [VAN, vancomycin], the MICalone with MRSA ATCC 43,300 [1] came out at 1. In addition, in the test on MRSA ATCC 43,300 [1] (group 9: PVB + VAN), the FICI turned out to be 2. In the test with MRSA ATCC 43,300 [1] (group 9: PVB combined with VAN), the Fold change is recorded as 1 and the MICcombined is 1. Also, the persister cells killing result in test [3] was “resistant”.
Regarding penicillin, in the test on MRSA ATCC 43,300 [1] (group 10: PVB + P), the FICI came to 1.5 and the Outcome entry was “indifference (an indifference effect was defined as 1 < FICI ≤ 4)”.
For the compound `CC(C)(O/N=C(\C(=O)N[C@@H]1C(=O)N2C(C(=O)[O-])=C(C[n+]3ccccc3)CS[C@H]12)c1csc(N)n1)C(=O)O` [CAZ, ceftazidime], the MICalone in the test on MRSA ATCC 43,300 [1] came out at 32. Besides, the FICI in the test on MRSA ATCC 43,300 [1] (group 11: PVB + CAZ) came out at 0.75. Further, in the test with MRSA ATCC 43,300 [1] (setting [9]), the Fold change was determined as 0.25 and the MICcombined is 8.
For `Cc1onc(-c2ccccc2)c1C(=O)N[C@@H]1C(=O)N2[C@@H]1SC(C)(C)[C@@H]2C(=O)O` [OXA, oxacillin], the MICalone with MRSA ATCC 43,300 [1] is listed as 16. Moreover, the FICI with MRSA ATCC 43,300 [1] (group 15: PVB + OXA) came to 0.25. In the test with MRSA ATCC 43,300 [1] (setting [10]), the Fold change was 0.125 and the MICcombined was 2. Further, the “bactericidal activity of combination” value with MRSA ATCC 43,300 [2] is given as “synergistical bactericidal activity”.
On to `CO/N=C(\C(=O)N[C@@H]1C(=O)N2C(C(=O)O)=C(CSc3nc(=O)c(=O)[nH]n3C)CS[C@H]12)c1csc(N)n1` [CRO, ceftriaxone], for which the MICalone in the test on MRSA ATCC 43,300 [1] is 32. Besides, in the test with MRSA ATCC 43,300 [1] (group 16: PVB + CRO), the FICI was determined as 0.5625. In addition, in the test with MRSA ATCC 43,300 [1] (setting [11]), the Fold change came out at 0.0625 and the MICcombined amounted to 2.
For `CN[C@@H]1[C@H](O)[C@H](NC)[C@H]2O[C@@]3(O)C(=O)C[C@@H](C)O[C@H]3O[C@@H]2[C@H]1O` [SPC, spectinomycin], the MICalone with MRSA ATCC 43,300 [1] was found to be 128. Besides, the FICI in the test with MRSA ATCC 43,300 [1] (group 21: PVB + SPC) was 2. In the test on MRSA ATCC 43,300 [1] (setting [12]), the Fold change was determined as 1 and the MICcombined is on record as 128.
In the case of `CN(C)[C@@H]1C(O)=C(C(N)=O)C(=O)[C@@]2(O)C(O)=C3C(=O)c4c(O)cccc4[C@@](C)(O)[C@H]3C[C@@H]12` [TET, tetracycline], the MICalone in the test with MRSA ATCC 43,300 [1] was determined as 2. For the same compound, the FICI in the test with MRSA ATCC 43,300 [1] (group 1: PVB + TET) amounted to 3. In the test on MRSA ATCC 43,300 [1] (group 1: PVB combined with TET), the Fold change was determined as 1 and the MICcombined was determined as 2.
On to `Cc1nnc(SCC2=C(C(=O)O)N3C(=O)[C@@H](NC(=O)Cn4cnnn4)[C@H]3SC2)s1` [CEZ, cefazolin], for which the MICalone in the test with MRSA ATCC 43,300 [1] stood at 16. Further, in the test on MRSA ATCC 43,300 [1] (group 13: PVB + CEZ), the FICI was determined as 0.5625. Moreover, in the test with MRSA ATCC 43,300 [1] (setting [13]), the Fold change is 0.5 and the MICcombined is on record as 8.
Consider `CO/N=C(\C(=O)N[C@@H]1C(=O)N2C(C(=O)O)=C(COC(C)=O)CS[C@H]12)c1csc(N)n1` [CEF, cefotaxime], for which the MICalone in the test on MRSA ATCC 43,300 [1] was determined as 2. Moreover, in the test with MRSA ATCC 43,300 [1] (setting [14]), the Fold change is reported as 0.25 and the MICcombined is 0.5. The “bactericidal activity of combination” value with MRSA ATCC 43,300 [2] is “synergistical bactericidal activity”.
On to `CC[C@H]1OC(=O)[C@H](C)[C@@H](O[C@H]2C[C@@](C)(OC)[C@@H](O)[C@H](C)O2)[C@H](C)[C@@H](O[C@@H]2O[C@H](C)C[C@H](N(C)C)[C@H]2O)[C@](C)(O)C[C@@H](C)C(=O)[C@H](C)[C@@H](O)[C@]1(C)O` [E, erythromycin], for which, in the test on MRSA ATCC 43,300 [1] (group 3: PVB + E), the FICI stood at 2.
Regarding `CC(=O)NC[C@H]1CN(c2ccc(N3CCOCC3)c(F)c2)C(=O)O1` [LZD, linezolid], in the test on MRSA ATCC 43,300 [1], the MICalone is 2. Moreover, in the test on MRSA ATCC 43,300 [1] (group 8: PVB + LZD), the FICI is 2. In the test with MRSA ATCC 43,300 [1] (group 8: PVB combined with LZD), the Fold change worked out at 1 and the MICcombined is recorded as 2.
